From patent publication US20040220121A1, “Methods for drug delivery” (priority 2003, published 2004)

Experiments:
JJ5 Breast Cancer cells [1] = conditions: in vitro
Protocol: The EGF-^111In-labeled transferrin (0.25-80 ng) was incubated with 1.5×10^6 cells/dish JJ5 Breast Cancer (prepared from BCBM JJ5) cells in 1 mL of 0.1% human serum albumin in 35 mm multiwell culture dishes at 37° C. for 30 minutes. The cells were transferred to a centrifuge tube and centrifuged. The cell pellet was separated from the supernatant and counted in a g-scintillation counter to determine bound (B) and free (F) radioactivity. Non-specific binding was determined by conducting the assay in 100 nM hEGF. […] Internalized fraction was measured by determining the proportion of radioactivity which could not be displaced from the cell surface by 100 nM hEGF. Cell-associated binding (surface-binding and intracellular accumulation) was expressed as a percentage of medium radioactivity bound per mg of cell study protein.

JJ5 Breast Cancer cells [2] = assay: Growth inhibition assay of EGF-111In-labeled transferrin composition against JJ5 breast cancer cells; type: cell-based, human; conditions: 3.5 pCi/cell, cultured 4 days
Protocol: JJ5 breast cancer cells (prepared from BCBM JJ5) expressing approximately 10^6 epidermal growth factor receptors/cell were incubated with EGF-^111In-labeled transferrin composition, unlabeled hEGF or ^111In-oxine, centrifuged to remove free ligand, then assayed and seeded ([…]) into 35 mm culture dishes. Growth medium was added and the cells were cultured at 37° C./5% CO^2 for 4 days. The cells were then recovered by trypsinization and counted in a hemocytometer. Control dishes contained cells cultured in growth medium containing ^111In-DTPA or growth medium alone.

Row | Compound | retained by the breast cancer cells (JJ5 Breast Cancer cells [1]; 37° C.) | 111In radioactivity lost from the cells (JJ5 Breast Cancer cells [1]; over a 24 hour period at 37° C.) | growth inhibition of the JJ5 cells (JJ5 Breast Cancer cells [2])
1 | EGF-^111In-labeled transferrin composition: human EGF linked via PEG3400-biotin or peptide linker to streptavidin-transferrin, transferrin labeled with 111In | at least 24 hours | < 8% | –
2 | [In+3].[O-]c1cccc2cccnc12.[O-]c1cccc2cccnc12.[O-]c1cccc2cccnc12 [^111In-oxine] | – | – | 91%
